Measurements published in PubChem BioAssay AID1918953 (Molecular Pharmacology Branch, DTP, NCI, 2023).
pIC50: −log10 of the molar value. Where “and” joins values, the source holds several entries; their conditions need not be identical. Identical values can stand only once.

System: MDA-MB-231 complex spheroid viability
Assay: Anticancer human tumor MDA-MB-231/ATCC cell line growth inhibition;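 further: drug exposure lasted 7 days starting on day 3 of spheroid growth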
Conditions: for viability, T/C: stronger effect = lower value
Method in brief: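 Complex spheroids of tumor cells with HUVEC and human MSCs, exposed to iadademstat combined with other agents. Each agent tested in half-log steps from near clinical Cmax (else 10 microM top), DMSO ≤0.25%.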

[1] = curve of first compound, second compound 0.1 µM
[2] = curve of first compound, second compound 0.316 µM
[3] = curve of first compound, second compound 1 µM
[4] = curve of first compound, second compound 3.16 µM
[5] = curve of first compound, second compound 10 µM
[6] = second compound 0.1 µM, first compound 0.0316 µM
[7] = second compound 0.1 µM, first compound 0.1 µM
[8] = second compound 0.1 µM, first compound 0.316 µM
[9] = second compound 0.1 µM, first compound 1 µM
[10] = second compound 0.1 µM, first compound 3.16 µM
[11] = second compound 0.1 µM, first compound 10 µM
[12] = second compound 0.316 µM, first compound 0.0316 µM
[13] = second compound 0.316 µM, first compound 0.1 µM
[14] = second compound 0.316 µM, first compound 0.316 µM
[15] = second compound 0.316 µM, first compound 1 µM
[16] = second compound 0.316 µM, first compound 3.16 µM
[17] = second compound 0.316 µM, first compound 10 µM
[18] = second compound 1 µM, first compound 0.0316 µM
[19] = second compound 1 µM, first compound 0.1 µM
[20] = second compound 1 µM, first compound 0.316 µM
[21] = second compound 1 µM, first compound 1 µM
[22] = second compound 1 µM, first compound 3.16 µM
[23] = second compound 1 µM, first compound 10 µM
[24] = second compound 3.16 µM, first compound 0.0316 µM
[25] = second compound 3.16 µM, first compound 0.1 µM
[26] = second compound 3.16 µM, first compound 0.316 µM
[27] = second compound 3.16 µM, first compound 1 µM
[28] = second compound 3.16 µM, first compound 3.16 µM
[29] = second compound 3.16 µM, first compound 10 µM
[30] = second compound 10 µM, first compound 0.0316 µM
[31] = second compound 10 µM, first compound 0.1 µM
[32] = second compound 10 µM, first compound 0.316 µM
[33] = second compound 10 µM, first compound 1 µM
[34] = second compound 10 µM, first compound 3.16 µM
[35] = second compound 10 µM, first compound 10 µM
[36] = second compound 0.1 µM, first compound 0.000949 µM
[37] = second compound 0.1 µM, first compound 0.003 µM
[38] = second compound 0.1 µM, first compound 0.00949 µM
[39] = second compound 0.1 µM, first compound 0.03 µM
[40] = second compound 0.1 µM, first compound 0.0949 µM
[41] = second compound 0.1 µM, first compound 0.3 µM
[42] = second compound 0.316 µM, first compound 0.000949 µM
[43] = second compound 0.316 µM, first compound 0.003 µM
[44] = second compound 0.316 µM, first compound 0.00949 µM
[45] = second compound 0.316 µM, first compound 0.03 µM
[46] = second compound 0.316 µM, first compound 0.0949 µM
[47] = second compound 0.316 µM, first compound 0.3 µM
[48] = second compound 1 µM, first compound 0.000949 µM
[49] = second compound 1 µM, first compound 0.003 µM
[50] = second compound 1 µM, first compound 0.00949 µM
[51] = second compound 1 µM, first compound 0.03 µM
[52] = second compound 1 µM, first compound 0.0949 µM
[53] = second compound 1 µM, first compound 0.3 µM
[54] = second compound 3.16 µM, first compound 0.000949 µM
[55] = second compound 3.16 µM, first compound 0.003 µM
[56] = second compound 3.16 µM, first compound 0.00949 µM
[57] = second compound 3.16 µM, first compound 0.03 µM
[58] = second compound 3.16 µM, first compound 0.0949 µM
[59] = second compound 3.16 µM, first compound 0.3 µM
[60] = second compound 10 µM, first compound 0.000949 µM
[61] = second compound 10 µM, first compound 0.003 µM
[62] = second compound 10 µM, first compound 0.00949 µM
[63] = second compound 10 µM, first compound 0.03 µM
[64] = second compound 10 µM, first compound 0.0949 µM
[65] = second compound 10 µM, first compound 0.3 µM

SMILES: COc1ccc([C@@H](O)c2cc(-c3ncnc4cc(N5CCOCC5)ccc34)c(F)cc2Cl)nn1 + NC1CC1c1ccc(-c2cccc(O)c2)cc1
- pIC50 [1]: 6.44
- pIC50 [2]: 6.76
- pIC50 [3]: 7.08
- pIC50 [4]: 6.79
- pIC50 [5]: > 7.50
- viability, T/C [6]: 74.9%
- viability, T/C [7]: 65.6%
- viability, T/C [8]: 53%
- viability, T/C [9]: 33.1%
- viability, T/C [10]: 17.1%
- viability, T/C [11]: 12.8%
- viability, T/C [12]: 57.1%
- viability, T/C [13]: 58.5%
- viability, T/C [14]: 42.3%
- viability, T/C [15]: 28.9%
- viability, T/C [16]: 18%
- viability, T/C [17]: 13.1%
- viability, T/C [18]: 59.3%
- viability, T/C [19]: 48.3%
- viability, T/C [20]: 36%
- viability, T/C [21]: 27.4%
- viability, T/C [22]: 16.2%
- viability, T/C [23]: 11%
- viability, T/C [24]: 58.5%
- viability, T/C [25]: 54.2%
- viability, T/C [26]: 43.7%
- viability, T/C [27]: 29.1%
- viability, T/C [28]: 14.8%
- viability, T/C [29]: 11.6%
- viability, T/C [30]: 44.8%
- viability, T/C [31]: 43.7%
- viability, T/C [32]: 31.6%
- viability, T/C [33]: 20.2%
- viability, T/C [34]: 13.5%
- viability, T/C [35]: 10.2%

SMILES: COc1ccc([C@@H](O)c2cc(-c3ncnc4cc(N5CCOCC5)ccc34)c(F)cc2Cl)nn1 + NC1CCC(NC2CC2c2ccccc2)CC1
- pIC50 [1]: 6.32
- pIC50 [2]: 6.26
- pIC50 [3]: 6.17
- pIC50 [4]: 6.30
- pIC50 [5]: 6.55
- viability, T/C [6]: 89.3%
- viability, T/C [7]: 75.7%
- viability, T/C [8]: 55.6%
- viability, T/C [9]: 40.3%
- viability, T/C [10]: 27.9%
- viability, T/C [11]: 24.6%
- viability, T/C [12]: 91.5%
- viability, T/C [13]: 79.3%
- viability, T/C [14]: 59.1%
- viability, T/C [15]: 41.2%
- viability, T/C [16]: 27.6%
- viability, T/C [17]: 26%
- viability, T/C [18]: 96.6%
- viability, T/C [19]: 79.8%
- viability, T/C [20]: 65.7%
- viability, T/C [21]: 41.9%
- viability, T/C [22]: 28.9%
- viability, T/C [23]: 23.8%
- viability, T/C [24]: 74.2%
- viability, T/C [25]: 72.1%
- viability, T/C [26]: 54.2%
- viability, T/C [27]: 42.3%
- viability, T/C [28]: 27.2%
- viability, T/C [29]: 24.4%
- viability, T/C [30]: 62.8%
- viability, T/C [31]: 61%
- viability, T/C [32]: 47.5%
- viability, T/C [33]: 36.5%
- viability, T/C [34]: 28%
- viability, T/C [35]: 24.3%

SMILES: Nc1ccn(C2OC(CO)C(O)C2(F)F)c(=O)n1 (configuration not stated) + NC1CCC(NC2CC2c2ccccc2)CC1
- pIC50 [1]: > 9.02
- pIC50 [2]: > 9.02
- pIC50 [3]: > 9.02
- pIC50 [4]: > 9.02
- pIC50 [5]: > 9.02
- viability, T/C [36]: 23.4%
- viability, T/C [37]: 18.9%
- viability, T/C [38]: 17.4%
- viability, T/C [39]: 15.9%
- viability, T/C [40]: 8.32%
- viability, T/C [41]: 6.14%
- viability, T/C [42]: 24.3%
- viability, T/C [43]: 19.6%
- viability, T/C [44]: 19%
- viability, T/C [45]: 16%
- viability, T/C [46]: 8.93%
- viability, T/C [47]: 6.74%
- viability, T/C [48]: 22.2%
- viability, T/C [49]: 17.9%
- viability, T/C [50]: 18.2%
- viability, T/C [51]: 13.6%
- viability, T/C [52]: 8.49%
- viability, T/C [53]: 7.33%
- viability, T/C [54]: 23.7%
- viability, T/C [55]: 18.9%
- viability, T/C [56]: 17.2%
- viability, T/C [57]: 12.8%
- viability, T/C [58]: 9.01%
- viability, T/C [59]: 6.68%
- viability, T/C [60]: 19.2%
- viability, T/C [61]: 19.2%
- viability, T/C [62]: 14.4%
- viability, T/C [63]: 10.3%
- viability, T/C [64]: 6.87%
- viability, T/C [65]: 5.84%

SMILES: CCc1c2c(nc3ccc(O)cc13)-c1cc3c(c(=O)n1C2)COC(=O)[C@]3(O)CC + NC1CC1c1ccc(-c2cccc(O)c2)cc1
- pIC50 [1]: > 9.02
- pIC50 [2]: > 9.02
- pIC50 [3]: > 9.02
- pIC50 [4]: > 9.02
- pIC50 [5]: > 9.02
- viability, T/C [36]: 22.7%
- viability, T/C [37]: 19.7%
- viability, T/C [38]: 18.3%
- viability, T/C [39]: 4.83%
- viability, T/C [40]: 1.03%
- viability, T/C [41]: 0.74%
- viability, T/C [42]: 22.5%
- viability, T/C [43]: 22%
- viability, T/C [44]: 19.4%
- viability, T/C [45]: 5.07%
- viability, T/C [46]: 0.91%
- viability, T/C [47]: 0.54%
- viability, T/C [48]: 23.9%
- viability, T/C [49]: 20.1%
- viability, T/C [50]: 17.1%
- viability, T/C [51]: 5.94%
- viability, T/C [52]: 0.68%
- viability, T/C [53]: 0.61%
- viability, T/C [54]: 22.4%
- viability, T/C [55]: 20.1%
- viability, T/C [56]: 18.4%
- viability, T/C [57]: 5.48%
- viability, T/C [58]: 0.85%
- viability, T/C [59]: 0.54%
- viability, T/C [60]: 18.5%
- viability, T/C [61]: 20.4%
- viability, T/C [62]: 13.1%
- viability, T/C [63]: 1.68%
- viability, T/C [64]: 0.74%
- viability, T/C [65]: 0.5%

SMILES: COc1cc(C2c3cc4c(cc3C(OC3OC5COC(C)OC5C(O)C3O)C3COC(=O)C23)OCO4)cc(OC)c1O (configuration not stated)
- viability, T/C (compound 0.00949 µM): 96.1% and 79.9%
- viability, T/C (compound 0.03 µM): 76.1% and 47.9%
- viability, T/C (compound 0.0949 µM): 49.9% and 32.6%
- viability, T/C (compound 0.3 µM): 35% and 22.9%
- viability, T/C (compound 0.949 µM): 13.5% and 10.3%
- viability, T/C (compound 3 µM): 6.1% and 8.34%
- pIC50 (curve of compound): 6.97 and 7.51
